Measured values as given in patent US8933122B2, “Use of cationic surfactants as sporicidal agents” (Laboratorios Miret, S.A., priority 2008, dated 2015).

Test system: endospores from Clostridium sporogenes ATCC 7955
Experiment: Sporicidal activity, quantitative suspension test EN 13704:2002 (Example 5)
Type: cell-based
Conditions: 60 minutes contact, 20° C.; for Test of LAE sporicidal activity (Na), surviving spores count: water as interfering substance, N 1.3 × 10^6 cfu/mL
Description: The determination of the sporicidal activity of LAE has been carried out according to the European standard EN 13704:2002 Chemical disinfectant—Quantitative suspension test for the evaluation of sporicidal activity of chemical disinfectants used in food, industrial, domestic and institutional areas—Test method and requirements”.
A test suspension containing endospores from Clostridium sporogenes ATCC 7955 was prepared from a culture grown on a nutrient agar, to which additional sporulation enhancement ingredients were added. Plates were harvested with sterile water and endospores were purified by repeated centrifugations and resuspensions in water.
Neutralizer. The neutralizer mixture consisted of 30 g/L polysorbate 80 in water. The solution was intended to neutralize any chemicals so that these would not affect subsequent growth of the bacteria.
The sporicidal activity of a given product is defined by its capacity to reduce at least by 10^3 the amount of Clostridium sporogenes bacterial spores in suspension, in the conditions established in the method.
The product was in contact with a suspension of bacterial spores during an established period of time of 60 minutes. An interfering substance can be added to the suspension, in this case water. Next, the effect of the product is neutralized by adding a neutralizer previously chosen, preceding to the surviving spores count.
• 1. Spore suspension obtained from a spored-form culture of Clostridium sporogenes. • 2. Count of the spore suspension of Clostridium sporogenes. • 3. The possible toxic effect of the neutralizer on the spores in the absence of the product is valued. • 4. […] Results: Results are expressed as the reduction of viability of the spore suspension in regards to: […]
Sporicidal activity is calculated following the criteria of the Standard EN 13704: 2002 R=N×0.1/Na N is cfu/mL of the spore suspension. […] The calculated reduction (R) of a solution of: • 13 μg/mL of LAE is R<10^3 cfu/mL • 26 μg/mL of LAE is R<10^3 cfu/mL • 51 μg/mL of LAE is R>10^3 cfu/mL • 64 μg/mL of LAE is R>10^3 cfu/mL

CCCCCCCCCCCC(=O)N[C@@H](CCCN=C(N)N)C(=O)OCC.Cl [LAE, ethyl ester of the lauramide of the arginine monohydrochloride]
concentration displaying sporicidal activity (reduction equal or above 10^3) (EN 13704:2002): ≥ 51 μg/mL | Test of LAE sporicidal activity (Na), surviving spores count (LAE 13 μg/mL): 3.3 × 10^3 cfu/mL | Test of LAE sporicidal activity (Na), surviving spores count (LAE 26 μg/mL): 2.3 × 10^3 cfu/mL
